Here are results for 13 compounds from PMC12300679, “Taurine-Based Hybrid Drugs as Potential Anticancer Therapeutic Agents: In Vitro, In Vivo Evaluations” (Pharmaceuticals, 2025).

Each structure is given as a SMILES string.

The subject of data set [1] is WI38 human fibroblast cell line. Put plainly: MTT cytotoxicity assay, normal WI38 cells. It counts as cell-based. The settings on record: WI-38, tested at 1–200 µM, three independent experiments.
The test system of data set [2] is M-HeLa human cervix carcinoma cells. Put plainly: MTT cytotoxicity assay, M-HeLa. Format: cell-based. The settings on record: for IC50: Homo sapiens, M-HeLa, tested at 1–200 µM, three independent experiments; for IC50 / cytotoxicity against M-HeLa (in words): MTT; for SI (selectivity index) M-HeLa: M-HeLa versus normal WI38 cells.
Data set [3] deals with HuTu 80 human duodenal adenocarcinoma cells. Put plainly: MTT cytotoxicity assay, HuTu 80. Format: cell-based. The settings on record: for IC50: Homo sapiens, HuTu80, MTT, tested at 1–200 µM, three independent experiments; for SI (selectivity index) HuTu 80: HuTu 80 versus normal WI38 cells.
Data set [4] deals with RPMI 1788 human healthy donor peripheral blood leukocytes. Kind of data set: MTT cytotoxicity assay, normal RPMI 1788 cells. It counts as cell-based. The settings on record: tested at 1–200 µM, three independent experiments, read-out: IC50 RPMI 1788 (normal cell line).
Data set [5] has as its system HL-60 human promyelocytic leukemia cells. Put plainly: MTT cytotoxicity assay, HL-60. The settings on record: for IC50: Homo sapiens, HL-60, MTT, tested at 1–200 µM, three independent experiments. Format: cell-based.
For the next data set, the system named is lymphatic leukemia P388. Kind of data set: Antitumor activity, syngeneic lymphatic leukemia P388 in BDF1 mice. It counts as in vivo, mouse. The settings on record: for ILS / MST ± SD: i.p. days 1, 5, 9. How it is done: At the next stage, we evaluated them in vivo using syngeneic mouse leukosis P388, which plays an important role in the screening of potential antitumor agents. The antitumor effect of the synthesized compounds was evaluated according to the increase in the average lifespan (ILS, %) of tumor-bearing animals. Due to the fact that physiologically relevant solvent, such as water or physiological solution [49], can be used as a solvent for parenteral administration of substances, we chose only water-soluble compounds 4o–r for the in vivo study.
As model tumors for the determination of antitumor activity of phosphorus-containing derivatives of pyrrolidine, the strain of lymphatic leukemia P388 was chosen. Lymphatic leukemia P388 was transplanted into hybrid mice of the BDF1 line intraperitoneally in accordance with the standard procedure. The inoculum contained 10^6 tumor cells in isotonic solution of NaCl. […] In each experiment, the control group was represented by the cohort of animals with tumors not treated with the compounds. Each group consisted of six mice. The animals were inspected daily over at least 60 days. The effectiveness of therapy was evaluated by the number of surviving animals, as well as by the increase in the average lifespan (ILS%), which was evaluated as the percentage of the mean survival time (MST) of the treated group (t) as compared to the control group (c): […].

Where [6] appears, read: dose 12 (table prints no unit; b71 mg/kg).
[7] abbreviates: dose 17 (table prints no unit; b71 mg/kg).
Setting [8] is: dose 26 (table prints no unit; b71 mg/kg).
Setting [9] is: dose 37 (table prints no unit; b71 mg/kg).
Where [10] appears, read: dose 55 (table prints no unit; b71 mg/kg).

`O=C1CCN(c2ccccc2)N1C1CCCN1S(=O)(=O)CCN1CCCCC1` (stereo not drawn) [Compound 4b, 1-Phenyl-2-(1-((2-(piperidin-1-yl)ethyl)sulfonyl)pyrrolidin-2-yl)pyrazolidin-3-one]: the 50% inhibitory concentration (IC50) in data set [1] was 88.3 ± 7.1 µM; in data set [2], 87 ± 6.8 µM; in data set [3], > 100 µM. For the same compound, the “SI (selectivity index) M-HeLa” value in data set [2] is 1. For the same compound, in data set [3], the “SI (selectivity index) HuTu 80” value was “- ((-)—no selectivity)”.

`O=C(O)CNCCS(=O)(=O)N1CCCC1P(=O)(c1ccccc1)c1ccccc1` (stereo not drawn) [Compound 4v, 2-((2-((2-(Diphenylphosphoryl)pyrrolidin-1-yl)sulfonyl)ethyl)amino)acetic acid]: the IC50 in data set [1] is 211 ± 17 µM; in data set [2] it was 96.2 ± 8.4 µM; in data set [3], > 100 µM. Moreover, the “SI (selectivity index) M-HeLa” value in data set [2] is given as 2.2.

Take `Cl.O=P(c1ccccc1)(c1ccccc1)C1CCCN1S(=O)(=O)CCN1CCOCC1` (stereo not drawn) [Compound 4s, 4-(2-((2-(Diphenylphosphoryl)pyrrolidin-1-yl)sulfonyl)ethyl)morpholin-4-ium chloride]: the half-maximal inhibitory concentration (IC50) was 91.8 ± 8.4 µM in data set [1]; 78.4 ± 6.6 µM in data set [2]; > 100 µM in data set [3]; > 100 µM in data set [4]; > 100 µM in data set [5]. The “SI (selectivity index) M-HeLa” value in data set [2] was found to be 1.2. In addition, the “SI (selectivity index) HuTu 80” value in data set [3] was “- ((-)—no selectivity)”.

For the compound `O=c1[nH]cc(F)c(=O)[nH]1` [5-Fluorouracil, reference compound], the half-inhibitory concentration (IC50) in data set [1] worked out at 62 ± 4.8 µM; in data set [2] it was 75.6 ± 6.1 µM; in data set [3] it was 65.2 ± 5.5 µM. Besides, the “SI (selectivity index) M-HeLa” value in data set [2] was “- ((-)—no selectivity)”. The “SI (selectivity index) HuTu 80” value in data set [3] was 1.

Consider `Nc1ncnc2c1ncn2CCS(=O)(=O)N1CCCC1P(=O)(c1ccccc1)c1ccccc1` (stereo not drawn) [Compound 4u, (1-((2-(6-Amino-9H-purin-9-yl)ethyl)sulfonyl)pyrrolidin-2-yl)diphenylphosphine oxide], for which the IC50 in data set [1], in data set [2] and in data set [3] was > 100 µM in each case.

Compound `O=P(c1ccccc1)(c1ccccc1)C1CCCN1S(=O)(=O)CCNCCS(=O)(=O)O` (stereo not drawn) [Compound 4y, 2-((2-((2-(Diphenylphosphoryl)pyrrolidin-1-yl)sulfonyl)ethyl)amino)ethane-1-sulfonic acid] showed an IC50 in data set [1] of 120 ± 9.3 µM. Besides, in data set [2], 62.5 ± 5.3 µM corresponded to half-maximal inhibition (IC50), the “SI (selectivity index) M-HeLa” value is listed as 1.9 and the “cytotoxicity against M-HeLa (in words)” value is on record as “moderate cytotoxicity”. Further, in data set [3], it took 100 ± 9.2 µM to reach half-maximal inhibition (IC50) and the “SI (selectivity index) HuTu 80” value is on record as 1.2.

Take `Cc1c(C2CCCN2S(=O)(=O)CCNCC(=O)O)c(=O)n(-c2ccccc2)n1C` (stereo not drawn) [Compound 4m, (2-((2-(1,5-Dimethyl-3-oxo-2-phenyl-2,3-dihydro-1H-pyrazol-4-yl)pyrrolidin-1-yl)sulfonyl)ethyl)glycine]: the IC50 is > 100 µM in data set [1], > 100 µM in data set [2] and 87 ± 7 µM in data set [3]. Further, in data set [3], the “SI (selectivity index) HuTu 80” value was >1.1.

On to `O=C(O)c1cn(C2CC2)c2cc(N3CCN(CCS(=O)(=O)N4CCCC4N4C(=O)CCN4c4ccccc4)CC3)c(F)cc2c1=O` (stereo not drawn) [Compound 4l, 1-Cyclopropyl-6-fluoro-4-oxo-7-(4-(2-((2-(5-oxo-2-phenylpyrazolidin-1-yl)pyrrolidin-1-yl)sulfonyl)ethyl)piperazin-1-yl)-1,4-dihydroquinoline-3-carboxylic acid], for which the half-inhibitory concentration (IC50) in data set [1] was 154 ± 12 µM. In data set [2], the IC50 amounted to 85.4 ± 7.5 µM, the “SI (selectivity index) M-HeLa” value is on record as 1.8 and the “cytotoxicity against M-HeLa (in words)” value is reported as “moderate cytotoxicity”. For the same compound, the IC50 in data set [3] was > 100 µM.

Regarding `O=C(O)[C@@H](NCCS(=O)(=O)N1CCCC1P(=O)(c1ccccc1)c1ccccc1)c1c[nH]c2ccccc12` (stereo partly drawn) [Compound 4x, (2S)-2-((2-((2-(Diphenylphosphoryl)pyrrolidin-1-yl)sulfonyl)ethyl)amino)-2-(1H-indol-3-yl)acetic acid], the IC50 in data set [1] is 128 ± 10 µM; in data set [2] it was 98.2 ± 8.3 µM; in data set [3], > 100 µM. In addition, in data set [2], the “SI (selectivity index) M-HeLa” value turned out to be 1.3.

Consider `COc1cccc2c1C(=O)c1c(O)c3c(c(O)c1C2=O)C[C@@](O)(C(=O)CO)C[C@@H]3O[C@H]1C[C@H](N)[C@H](O)[C@H](C)O1` [Doxorubicin, reference compound], for which the IC50 in data set [4] came out at 3.3 ± 6.6 µM; in data set [5], 3 ± 4.7 µM. For the same compound, the “SI (selectivity index) HL-60” value in data set [5] (HL-60 versus normal RPMI 1788 leukocytes) was determined as 1.1.

`O=C(O)c1cn(C2CC2)c2cc(N3CCN(CCS(=O)(=O)N4CCCC4P(=O)(c4ccccc4)c4ccccc4)CC3)c(F)cc2c1=O` (stereo not drawn) [Compound 4z, 1-Cyclopropyl-7-(4-(2-((2-(diphenylphosphoryl)pyrrolidin-1-yl)sulfonyl)ethyl)piperazin-1-yl)-6-fluoro-4-oxo-1,4-dihydroquinoline-3-carboxylic acid] yielded an IC50 in data set [1] of 123 ± 9.6 µM. Also, in data set [2], the half-maximal inhibitory concentration (IC50) turned out to be 85.9 ± 8.2 µM and the “SI (selectivity index) M-HeLa” value stood at 1.4. For the same compound, in data set [3], inhibition was half-maximal at 64.6 ± 5.1 µM (IC50) and the “SI (selectivity index) HuTu 80” value was 1.9.

In turn, `Nc1ncnc2c1ncn2CCS(=O)(=O)N1CCCC1N1C(=O)CCN1c1ccccc1` (stereo not drawn) [Compound 4c, 2-(1-((2-(6-Amino-9H-purin-9-yl)ethyl)sulfonyl)pyrrolidin-2-yl)-1-phenylpyrazolidin-3-one] registered an IC50 in data set [1] of 100 µM. For the same compound, in data set [2], the 50% inhibitory concentration (IC50) is > 100 µM and the “SI (selectivity index) M-HeLa” value is reported as “- ((-)—no selectivity)”. In addition, in data set [3], the IC50 was > 100 µM and the “SI (selectivity index) HuTu 80” value was “- ((-)—no selectivity)”.

Regarding `CCN(CC)CCS(=O)(=O)N1CCCC1P(=O)(c1ccccc1)c1ccccc1.Cl` (stereo not drawn) [Compound 4o, 2-((2-(Diphenylphosphoryl)pyrrolidin-1-yl)sulfonyl)-N,N-diethylethanaminium chloride], the concentration for half-maximal inhibition (IC50) in data set [1] was 84.3 ± 7.2 µM; in data set [2], 56.7 ± 4.8 µM; in data set [3] it was > 100 µM; in data set [4], > 100 µM; in data set [5], > 100 µM. Moreover, the ILS in the data set with lymphatic leukemia P388 (setting [6]) is listed as 7%; in the data set with lymphatic leukemia P388 (setting [7]), −5%; in the data set with lymphatic leukemia P388 (setting [8]) it was 17%; in the data set with lymphatic leukemia P388 (setting [9]), 7%; in the data set with lymphatic leukemia P388 (setting [10]), 5%. In addition, the “MST ± SD” value in the data set on lymphatic leukemia P388 (setting [6]) was determined as 10.7 ± 1.0 days; in the data set with lymphatic leukemia P388 (setting [7]), 9.5 ± 0.8 days; in the data set with lymphatic leukemia P388 (setting [8]), 11.7 ± 1.9 days; in the data set on lymphatic leukemia P388 (setting [9]) it was 10.7 ± 0.9 days; in the data set with lymphatic leukemia P388 (setting [10]) it was 10.5 ± 1.2 days. Moreover, in the data set with lymphatic leukemia P388 (doses under study, i.p.), the “antileukemia / antitumor effect (in words)” value is listed as “did not display antitumor effect”. Further, the “SI (selectivity index) M-HeLa” value in data set [2] is given as 1.5. Moreover, in data set [2], the “cytotoxicity against M-HeLa (in words)” value was “moderate cytotoxicity”. The “SI (selectivity index) HuTu 80” value in data set [3] was “- ((-)—no selectivity)”.
